Measured values published in patent EP2340832A1, “Morphinan-6-one compounds for the treatment or prevention of neurodegenerative diseases” (Universität Innsbruck, priority 2009, dated 2011).
Where two headings read alike, the source gives them in different places.

How the values were obtained:
[1] = tested on: C57BL/6N female mice; assay: T-maze continuous alternation; conditions: for spontaneous alternation rate: normal mice
[2] = target: µ opioid receptor (Rattus norvegicus, UniProt P33535); assay: Opioid receptor binding assay, [3H]DAMGO, rat brain membranes; design: Membrane fractions were prepared from Sprague-Dawley rat or guinea pig brains; from tissue; host or cells: Sprague-Dawley rat brain (without cerebella) membranes; species or system Sprague-Dawley rat
Chain of µ opioid receptor (P33535 whole entry): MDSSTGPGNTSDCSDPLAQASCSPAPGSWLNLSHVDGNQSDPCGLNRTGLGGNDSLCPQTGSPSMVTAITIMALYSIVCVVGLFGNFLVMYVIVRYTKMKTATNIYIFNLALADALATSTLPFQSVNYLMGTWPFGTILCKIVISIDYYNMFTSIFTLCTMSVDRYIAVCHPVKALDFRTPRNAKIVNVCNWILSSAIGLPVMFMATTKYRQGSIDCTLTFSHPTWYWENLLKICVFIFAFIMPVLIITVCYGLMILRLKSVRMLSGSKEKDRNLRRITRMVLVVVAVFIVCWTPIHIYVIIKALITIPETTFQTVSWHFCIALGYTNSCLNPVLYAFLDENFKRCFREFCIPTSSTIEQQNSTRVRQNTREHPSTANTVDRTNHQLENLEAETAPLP
Experimental: Briefly, brains without cerebella were homogenised on ice in 5 volumes of ice-cold 50 mM Tris-HCI buffer (pH 7.4) and diluted in 30 volumes of the same buffer. After centrifugation at 40,000 x g for 20 min at 4°C, the pellets were resuspended in 30 volumes of Tris-HCI buffer and incubated at 37 °C for 30 min (rat brain) or for 10 min (guinea pig brain). The centrifugation step was repeated and the final pellets were resuspended in 5 volumes of 50 mM Tris-HCI buffer (pH 7.4) containing 0.32 M sucrose to give a protein concentration of 4 - 6 mg/ml. Protein concentration was determined by the method of Bradford using bovine serum albumin as standard.
Binding experiments were performed in 50 mM Tris-HCI buffer (pH 7.4) in a final volume of 1 ml containing 0.3 - 0.5 mg protein and different concentrations of the compounds. […] Guinea pig brain membranes were incubated with [^3H]U69,593 (30 min, 30 °C). Non-specific binding was determined in the presence of 10 µM unlabeled naloxone. […] Inhibition constant (Ki) values were calculated from competition binding curves using GraphPad Prism (San Diego, CA, USA) program. The values are expressed as the mean ± S.E.M of 2-4 independent experiments, each performed in duplicate.
The morphinan-6-one compounds of the present invention were evaluated in in vitro receptor binding assays for their interaction abilities with µ, δ and k opioid receptors. […] The affinities of the compounds at k opioid receptors were determined by displacement of [^3H]U69,593 using guinea pig brain membranes.

[3] = tested on: frontal cortex synaptosomes; assay: ACh release from synaptosomes (15 mM K+-evoked [3H]-ACh release, superfusion); format: cell-based, male Sprague Dawley rats
Experimental: Preparation of synaptosomes: synaptosomes were prepared from brain frontal cortex of male Sprague Dawley rats (4 months old). The frontal cortex was rapidly dissected on ice and homogenized in 40 volumes of 0.32 M sucrose buffered at pH 7.4 with 0.01 M sodium phosphate. The homogenate was centrifuged at 1,000 g for 5 min. The crude synaptosomal pellet was obtained by centrifugation of the supernatant at 15,000 g for 20 min and was resuspended in 5 ml basal medium (125 mM Nacl, 3 mM KCI, 1.2 mM MgS04, 1.2 mM CaCl2, 1.0 mM NaH2PO4, 22 mM NaHCO3 and 10 mM glucose) which had been gassed with 95% O2 - 5% CO2 at 37 °C, pH 7.2 - 7.4.
Superfusion protocol: The synaptosomal suspension was incubated with [^3H]-choline (0.03 µM, 17.5x10^6 Bq/g) for 15 min at 37 °C. Then, the suspension was diluted (1:8) and aliquots were applied on filters in a continuous superfusion system with parallel chambers maintained at 37 °C. The media used for superfusion were basal medium and 15 mM K^+-containing stimulation medium. Both media were supplemented with ACh (1 µM) to facilitate the effectiveness of an allosteric potentiating ligand at the nicotine receptor and with atropine (0.1 µM) to block M2 presynaptic receptors. Synaptosomes were superfused with basal medium for 30 min to reach a constant outflow of [^3H]-ACh. Under these experimental conditions, the radioactivity released consisted largely of newly synthesized [^3H]-ACh. The K^+-stimulated release of [^3H]-ACh was determined in 2 subsequently collected fractions: 6 min basal release (superfusion with basal medium) and 6 min K^+-evoked release (superfusion for 1.5 min with 15 mM K^+-containing medium followed by […] basal medium). The test compounds galantamine, 4 and 2 were present in the superfusion medium concomitantly with 15 mM K^+ (for 1.5 min). Basal release of [^3H]-ACh (continuous superfusion with basal medium) was determined by collection of a 6 min sample followed by four subsequent 2 min samples. Aliquots of samples were mixed with scintillation liquid and the radioactivity quantified with a scintillation counter. The radioactivity bound to the filters was also measured.
Statistical analysis: The amount of [^3H]-ACh released in each sample was calculated as fraction of total synaptosomal tritium at the start of the respective collection period (tritium in the sample / sum of tritium in the respective fractions and in the synaptosomes on the filter). K^+-evoked release was expressed as percentage of basal release rate. Each n=1 represents the mean of an experiment with one synaptosomal preparation in at least 3 superfusion chambers. Statistical significance of group variances was calculated by one way ANOVA followed by Bonferroni's test.

[4] = target: T1, K receptor (Cavia porcellus, UniProt P41144); format: biochemical, guinea pig
T1 construct: Membrane fractions were prepared from Sprague-Dawley rat or guinea pig brains; from tissue; host or cells: guinea pig brain (without cerebella) membranes
T1 sequence (P41144 whole entry): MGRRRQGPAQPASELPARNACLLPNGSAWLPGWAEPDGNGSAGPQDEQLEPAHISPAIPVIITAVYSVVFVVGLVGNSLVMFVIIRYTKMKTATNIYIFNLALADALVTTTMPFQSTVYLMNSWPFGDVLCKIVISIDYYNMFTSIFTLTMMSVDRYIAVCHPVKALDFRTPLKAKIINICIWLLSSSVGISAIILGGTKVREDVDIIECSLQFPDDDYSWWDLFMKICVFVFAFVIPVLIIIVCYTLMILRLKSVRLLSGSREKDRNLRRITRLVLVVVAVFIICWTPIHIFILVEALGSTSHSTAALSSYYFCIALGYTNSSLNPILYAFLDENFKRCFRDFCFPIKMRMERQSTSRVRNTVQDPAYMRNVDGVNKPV

[5] = target: T2, δ receptor (Rattus norvegicus, UniProt P33533); assay: [35S]GTPγS functional assay, rat brain membranes, δ receptor; format: biochemical, Sprague-Dawley rat
T2 construct: Membrane fractions were prepared from Sprague-Dawley rat or guinea pig brains; from tissue; host or cells: Sprague-Dawley rat brain (without cerebella) membranes
T2 sequence (P33533 whole entry): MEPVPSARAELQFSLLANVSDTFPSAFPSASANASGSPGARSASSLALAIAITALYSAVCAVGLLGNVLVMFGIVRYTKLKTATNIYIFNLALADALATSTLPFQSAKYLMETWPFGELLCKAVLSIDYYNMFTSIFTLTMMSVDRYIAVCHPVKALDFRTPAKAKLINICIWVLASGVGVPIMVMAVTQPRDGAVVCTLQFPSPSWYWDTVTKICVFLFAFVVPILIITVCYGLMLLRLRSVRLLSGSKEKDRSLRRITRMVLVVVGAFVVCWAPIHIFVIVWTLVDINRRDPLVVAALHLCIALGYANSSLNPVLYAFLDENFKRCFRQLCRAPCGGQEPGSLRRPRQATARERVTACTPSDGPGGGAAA
Experimental: Membrane fractions were prepared from Sprague-Dawley rat or guinea pig brains as described above. To determine binding of [^35S]GTPyS, rat or guinea pig brain membranes (10 µg of protein) were incubated for 60 min at 30 °C in Tris-EGTA buffer (50 mM Tris-HCl buffer, 3 mM MgCl2, 1 mM EGTA, […], pH 7.4) containing 30 µM GDP, 0.05 nM [^35S]GTPyS and appropriate concentrations of the respective compounds according to the present invention in a final volume of 1 ml. The reaction was terminated by vacuum filtration through Whatman GF/B glass fibre filters. Filters were washed three times with ice-cold 50 mM Tris-HCI buffer (pH 7.4) and the bound radioactivity was measured by liquid scintillation counting (Beckman Coulter™ LS6500). Basal activity was determined by subtracting the non-specific binding (measured in the presence of 100 µM unlabelled GTPyS) from the total binding (measured in the absence of the compound).
Stimulation produced by the compound is given as percentage of the basal activity (given as 100%). Functional data, EC50 (nM; half maximal effective concentration) and maximal stimulation Emax (% stimulation over basal level; maximal effective concentration), were calculated by using nonlinear regression analysis and sigmoidal curve fitting GraphPad Prism (San Diego, CA, USA) program. The values are expressed as the mean ± S.E.M of at least 3 independent experiments, each performed in triplicate. Statistical analysis was carried out using SPSS software (SPSS Inc., Chicago, lL, USA) and the Student T-test was used to compare different assay conditions. A ρ value < 0.05 was considered statistically significant.

[6] = scopolamine 0.033 µmol, compound 0.01 and 0.1 µmol i.c.v.

SMILES	spontaneous alternation rate ([1]; 0.01 and 0.1 µmol i.c.v.)	effect on scopolamine-increased running time [1, 6]	effect on scopolamine-induced reduction in alternation [1, 6]	Ki [2] [µM]	binding to opioid receptor µ (in words) [2]	Ki ([2]; read-out: Opioid binding affinities Ki µ receptor, [3H]DAMGO, rat brain membranes) [µM]	concentration of maximal effect on stimulation-evoked ACh release ([3]; 15 mM K+) [µM]	influence of the nAChR antagonist mecamylamine on the compound-induced release ([3]; at the maximally effective concentration (1: 50 µM))	effect on stimulation-evoked ACh release ([3]; lower (0.1 and 1 µM) and higher concentrations (100 µM))	spontaneous alternation rate ([1]; 0.05 µmol i.c.v.)	spontaneous alternation rate ([1]; lower (0.001; 0.01 and 0.025 µmol) or higher doses (0.1 µmol) i.c.v.)	effect on scopolamine-induced reduction in alternation ([1]; scopolamine 0.033 µmol, compound 0.01 µmol i.c.v., not shown)	effect on scopolamine-induced reduction in alternation ([1]; scopolamine 0.033 µmol, compound 0.05 µmol i.c.v.)	selectivity among opioid receptor types ([2]; from binding, Table 3)	[35S]GTPγS binding in the presence of the compound alone [4]	[35S]GTPγS binding on co-incubation with Nor-BNI versus antagonist alone [4]	effect on [35S]GTPγS binding stimulated by U69,593 [4]	effect on K+-evoked ACh release in frontal-cortex synaptosomes ([3]; 0.01 to 10 µM)	[35S]GTPγS binding on co-incubation with naltrindole versus antagonist alone ([5]; 10 µM each)	effect on [35S]GTPγS binding stimulated by SNC 80 ([5]; compound 10 µM, SNC 80 10 µM)
O=CN1CC[C@]23CC(=O)CC[C@H]2[C@H]1Cc1c(O)ccc(O)c13 [Compound 1, 1,4-dihydroxy-N-formylmorphinan-6-one]	did not influence alternation	did not influence	abolished the cholinergic impairment of alternation	> 10	does not bind	> 10	50	did not influence	ineffective											
C=CCN1CC[C@]23CC(=O)CC[C@H]2[C@H]1Cc1cccc(OC)c13 [Compound 4, 4-methoxy-N-allylmorphinan-6-one]				0.0202	some µ opioid receptor affinity					decreased spontaneous alternation rate	did not exert a significant effect	ineffective	ameliorated	moderate selectivity for the µ type	no increase	did not produce any significant increase	slight, but significant decrease	did not influence ACh release	did not produce any significant increase	did not cause any significant changes
